The numbers were not newly measured in patent US20110189281A1, “TELMISARTAN AND HYDROCHLOROTHIAZIDE COMBINATION THERAPY” (BOEHRINGER INGELHEIM INTERNATIONAL GMBH, priority 2004, published 2011), which cites them from elsewhere.

For the series the following is noted: physiological pH range of the gastrointestinal tract, pH 1 to 7; free acid form.

For the compound `CCCc1nc2c(C)cc(-c3nc4ccccc4n3C)cc2n1Cc1ccc(-c2ccccc2C(=O)O)cc1` [Telmisartan, 4′-[(1,4′-dimethyl-2′-propyl-[2,6′-bi-1H-benzimidazol]-1′-yl)methyl]-[1,1′-biphenyl]-2-carboxylic acid], the “Solubility in aqueous systems” value is “very poor solubility”.
